Consider nine compounds from paper PMC10979453, “Antioxidant and Angiotensin-Converting Enzyme Inhibitory Activity of Faba Bean-Derived Peptides After In Vitro Gastrointestinal Digestion: Insight into Their Mechanism of Action” (Journal of Agricultural and Food Chemistry, 2024).

Where two headings read alike, the source gives them in different places. Peptide text beside a SMILES is read from it.

As usually defined, the Ki is the equilibrium dissociation constant of an inhibitor or competing ligand from its target. By inhibition is commonly meant the share of the control response that was lost under treatment. A lower inhibition goes with a response near the control. As usually defined, the EC50 is the concentration giving half of the maximal effect.

Test [1] addresses T1, Angiotensin-converting enzyme (ACE) from rabbit lung (Oryctolagus cuniculus, UniProt P12822).
T1 construct: Angiotensin-converting enzyme (ACE) from rabbit lung (A6778); purchased Sigma-Aldrich A6778; host or cells: rabbit lung (tissue-derived enzyme)
T1 sequence (P12822 34-1310): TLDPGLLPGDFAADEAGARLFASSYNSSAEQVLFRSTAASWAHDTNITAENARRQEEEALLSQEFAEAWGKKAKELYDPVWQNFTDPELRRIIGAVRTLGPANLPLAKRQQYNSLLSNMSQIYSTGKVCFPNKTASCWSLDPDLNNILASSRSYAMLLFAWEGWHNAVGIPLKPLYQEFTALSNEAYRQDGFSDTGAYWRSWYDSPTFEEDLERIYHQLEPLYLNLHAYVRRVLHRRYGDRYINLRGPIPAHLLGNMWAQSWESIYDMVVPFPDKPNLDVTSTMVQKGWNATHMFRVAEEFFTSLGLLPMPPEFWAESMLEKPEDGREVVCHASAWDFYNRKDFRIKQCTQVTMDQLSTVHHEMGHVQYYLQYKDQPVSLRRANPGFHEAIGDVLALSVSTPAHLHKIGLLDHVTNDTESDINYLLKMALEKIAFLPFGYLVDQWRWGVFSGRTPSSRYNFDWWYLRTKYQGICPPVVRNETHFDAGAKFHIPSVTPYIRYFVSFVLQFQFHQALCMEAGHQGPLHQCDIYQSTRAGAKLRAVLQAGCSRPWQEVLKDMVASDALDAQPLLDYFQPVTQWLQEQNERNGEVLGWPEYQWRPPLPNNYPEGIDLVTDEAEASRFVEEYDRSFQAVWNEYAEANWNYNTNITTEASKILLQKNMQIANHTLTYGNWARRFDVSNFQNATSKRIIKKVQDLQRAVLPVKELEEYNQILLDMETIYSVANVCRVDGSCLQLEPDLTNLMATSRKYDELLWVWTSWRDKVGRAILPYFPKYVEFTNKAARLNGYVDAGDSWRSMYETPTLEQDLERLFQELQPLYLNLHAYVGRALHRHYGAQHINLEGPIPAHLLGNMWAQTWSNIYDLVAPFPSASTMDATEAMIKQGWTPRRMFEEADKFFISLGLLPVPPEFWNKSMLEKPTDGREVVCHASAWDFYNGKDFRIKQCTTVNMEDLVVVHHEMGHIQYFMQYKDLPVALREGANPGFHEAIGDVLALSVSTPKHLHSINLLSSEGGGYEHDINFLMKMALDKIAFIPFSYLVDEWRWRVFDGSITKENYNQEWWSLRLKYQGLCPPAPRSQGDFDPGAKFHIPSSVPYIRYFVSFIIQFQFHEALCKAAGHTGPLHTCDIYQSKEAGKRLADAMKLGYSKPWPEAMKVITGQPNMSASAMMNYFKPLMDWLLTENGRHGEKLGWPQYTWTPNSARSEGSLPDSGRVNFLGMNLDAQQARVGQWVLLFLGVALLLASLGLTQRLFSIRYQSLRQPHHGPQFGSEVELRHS
Put plainly: ACE inhibition kinetics (Lineweaver-Burk and secondary plots). The format is biochemical. The settings on record: HHL 0.5–2 mM, read-out: inhibition constant (Ki). On the procedure:
A kinetic study was performed following the procedure of Barbana et al. (2011)[23] to determine the inhibition pattern of four faba bean peptides with ACE inhibition activity (VIPTEPPH, VIPTEPPHA, VVIPTEPPHA, and VVIPTEPPH). The initial rate of reaction was measured with different HHL (0.5–2 mM) and peptides concentrations. Lineweaver–Burk double reciprocal plots were built to identify the inhibition pattern.
The ACE inhibition pattern of VIPTEPPH, VIPTEPPHA, VVIPTEPPHA, and VVIPTEPPH was assessed through kinetic experiments. The initial velocity of reaction was measured at different substrate (0.5–2 mM) and peptide concentrations, and Lineweaver–Burk double reciprocal plots were built to identify the inhibition pattern. […] The inhibitor binding site is, therefore, located outside the enzyme active site. The loss of ACE activity in the presence of peptides can, therefore, be explained by conformational changes caused by peptide binding rather than competition for the active site.
The inhibition constant (Ki) was calculated from secondary plots for each peptide. The secondary plots were constructed by plotting the Lineweaver–Burk curve slope against the peptide concentration. The Ki value was calculated from the negative intercept on the X-axis of the secondary plot. […] These Ki values are nearly identical to the IC50, confirming the noncompetitive inhibition pattern. The minor differences in the IC50 and Ki values can be explained by experimental imprecision.

Test [2] deals with T1, Angiotensin-converting enzyme (ACE) from rabbit lung. The test is described as follows: in vitro ACE inhibitory activity (HHL substrate). The test is classed as biochemical. The following applies: for IC50: mean ± SD; for inhibition at 10000 µM: peptide concentration 10 mM. The text has this:
Angiotensin-converting enzyme (ACE) from rabbit lung (A6778), N-hippuryl–His–Leu hydrate (HHL) (H1635), and captopril were purchased from Sigma-Aldrich (St. Louis, MO, USA).
ACE from rabbits was used for in vitro testing, since rabbit and human ACE are nearly homologous and their active sites are highly similar.[24]

Test [3] can be described thus: Oxygen Radical Absorption Capacity (ORAC) assay. The settings on record: for ORAC activity per mg of peptides: as given in the text; for ORAC activity, times higher than Trolox: on a molar basis, range over the named peptides. On the procedure:
2,2-Diphenyl-1-picrylhydrazyl (DPPH), 2,2′-azinobis(3-ethylbenzothiazoline-6-sulfonic acid) (ABTS), Oxygen Radical Absorption Capacity (ORAC), and the iron chelating assays were performed following the methods of Orona-Tamayo, Valverde, Nieto-Rendón, and Paredes-López (2015),[17] Re, Pellegrini, Proteggente, Pannala, Yang, and Rice-Evans (1999),[18] Tomer, McLeman, Ohmine, Scherer, Murray, and O’Neill (2007),[19] and of Orona-Tamayo et al. (2015),[17] respectively, as described in Martineau-Côté, Achouri, Wanasundara et al. (2022).[16] For the DPPH, ABTS, and iron chelating assays, the peptides were first screened at a high dose (10 mM). Peptides with antioxidant activity were then tested at different concentrations (0.1–10 mM) to evaluate the dose–response effect. The results were expressed as the half-maximal effective concentration (EC50), which was defined as the required peptide concentration, leading to 50% scavenging or chelating activity. The EC50 values were calculated using a four-parameter logistic curve regression, and Trolox was used as a positive control. For the ORAC assay, the results were expressed as μmol of Trolox equivalent per mM of peptides.

Test [4] in a line: ABTS free radical scavenging assay. The settings on record: for ABTS activity, times lower than Trolox: range over the named peptides.
Method: (§1) For the DPPH, ABTS, and iron chelating assays, the peptides were first screened at a high dose (10 mM). […] The EC50 values were calculated using a four-parameter logistic curve regression, and Trolox was used as a positive control. For the ORAC assay, the results were expressed as μmol of Trolox equivalent per mM of peptides.
For test [5] the following is noted: free amino acids; cited from earlier work.
Test [6] in a line: DPPH free radical scavenging assay. The settings on record: mean ± SD; tested at 0.1–10 mM.
Method: as §1
The mark [7] stands for this setting: read-out: ACE Inhibition (IC50 μM).
Where [8] appears, read: read-out: ACE Inhibition (IC50 μg/mL) (converted).

Regarding `CC[C@H](C)[C@H](NC(=O)[C@@H](NC(=O)[C@@H](N)C(C)C)C(C)C)C(=O)N1CCC[C@H]1C(=O)N[C@H](C(=O)N[C@@H](CCC(=O)O)C(=O)N1CCC[C@H]1C(=O)N1CCC[C@H]1C(=O)N[C@@H](Cc1c[nH]cn1)C(=O)N[C@@H](C)C(=O)O)[C@@H](C)O` [VVIPTEPPHA] (H-VVIPTEPPHA-OH), the Ki in test [1] came out at 54 µM. Also, the IC50 in test [2] (setting [7]) is 50 ± 5 µM; in test [2] (setting [8]) it was 50 µM. In test [2], this compound had an inhibition at 10000 µM of 100%.
Turning to `CC[C@H](C)[C@H](NC(=O)[C@@H](N)C(C)C)C(=O)N1CCC[C@H]1C(=O)N[C@H](C(=O)N[C@@H](CCC(=O)O)C(=O)N1CCC[C@H]1C(=O)N1CCC[C@H]1C(=O)N[C@@H](Cc1c[nH]cn1)C(=O)O)[C@@H](C)O` [VIPTEPPH] (H-VIPTEPPH-OH), the Ki in test [1] was 87 µM. Also, the IC50 in test [2] (setting [7]) was 90 ± 10 µM; in test [2] (setting [8]) it was 91.1 µM. The compound further registered an inhibition at 10000 µM in test [2] of 100%.
“TETWNPNHPE [synthesized faba bean-derived peptide, parent protein legumin B]” registered an ORAC activity in test [3] (as given in the abstract) of 2.84 ± 0.08 mM Trolox equivalent/mM. Further, in test [3], the “ORAC activity per mg of peptides” value was determined as 2.3 μMol Trolox eq/mg and the “ORAC activity, times higher than Trolox” value is given as 2.5 to 2.8 times. Also, in test [4], the “ABTS activity, times lower than Trolox” value is 8 to 66 times.
For the compound `CC[C@H](C)[C@H](NC(=O)[C@@H](NC(=O)[C@@H](N)C(C)C)C(C)C)C(=O)N1CCC[C@H]1C(=O)N[C@H](C(=O)N[C@@H](CCC(=O)O)C(=O)N1CCC[C@H]1C(=O)N1CCC[C@H]1C(=O)N[C@@H](Cc1c[nH]cn1)C(=O)O)[C@@H](C)O` [VVIPTEPPH] (H-VVIPTEPPH-OH), in test [1], the Ki turned out to be 45 µM. Also, the IC50 in test [2] (setting [7]) is 43 ± 1 µM; in test [2] (setting [8]), 43.5 µM. Moreover, testing at 10000 µM in test [2] gave an inhibition of 100%.
As to `N[C@@H](Cc1c[nH]cn1)C(=O)O` [histidine], the ORAC activity in test [5] was 78 μMol TE eq/mM.
`N[C@@H](Cc1c[nH]c2ccccc12)C(=O)O` [tryptophan]: in test [5], the ORAC activity is recorded as 2790 μMol TE eq/mM.
Turning to `CC[C@H](C)[C@H](NC(=O)[C@@H](N)C(C)C)C(=O)N1CCC[C@H]1C(=O)N[C@H](C(=O)N[C@@H](CCC(=O)O)C(=O)N1CCC[C@H]1C(=O)N1CCC[C@H]1C(=O)N[C@@H](Cc1c[nH]cn1)C(=O)N[C@@H](C)C(=O)O)[C@@H](C)O` [VIPTEPPHA] (H-VIPTEPPHA-OH), the Ki in test [1] amounted to 107 µM. The results for the IC50 in test [2] (setting [7]) and in test [2] (setting [8]) were 123 ± 5 µM and 123 µM, respectively. The same compound came in with an inhibition at 10000 µM in test [2] of 100%.
In the case of `N[C@@H](Cc1ccc(O)cc1)C(=O)O` [tyrosine], the ORAC activity in test [5] is recorded as 1020 μMol TE eq/mM.
In test [6], “TETWNPNHPEL [synthesized faba bean-derived peptide, parent protein legumin B]” gave an EC50 of 2100 ± 100 µM. Besides, in test [3], the “ORAC activity per mg of peptides” value came to 1.9 μMol Trolox eq/mg and the “ORAC activity, times higher than Trolox” value is reported as 2.5 to 2.8 times. In test [4] (mean ± SD, tested at 0.1–10 mM), this compound registered an EC50 of 500 ± 200 µM. For the same compound, the “ABTS activity, times lower than Trolox” value in test [4] lay within 8 to 66 times.
